In ChEMBL document CHEMBL4007491, “Structure-based drug design of novel ASK1 inhibitors using an integrated lead optimization strategy” (Bioorg Med Chem Lett, 2017):

Tests used:
[1] = target: Rho-associated protein kinase 1 (Homo sapiens, UniProt Q13464); assay: Inhibition of recombinant human GST-tagged ROCK1 catalytic domain expressed in baculovirus expression system
MAP kinase p38 = MAP kinase p38 (Homo sapiens, UniProt O15264+Q15759+Q16539+P53778); assay: Inhibition of MAPK p38 (unknown origin)
[2] = target: Glycogen synthase kinase-3 beta (Homo sapiens, UniProt P49841); assay: Inhibition of recombinant full length human His-tagged GSK3B expressed in baculovirus expression system
Glycogen synthase kinase-3 beta, sequence (P49841 whole entry): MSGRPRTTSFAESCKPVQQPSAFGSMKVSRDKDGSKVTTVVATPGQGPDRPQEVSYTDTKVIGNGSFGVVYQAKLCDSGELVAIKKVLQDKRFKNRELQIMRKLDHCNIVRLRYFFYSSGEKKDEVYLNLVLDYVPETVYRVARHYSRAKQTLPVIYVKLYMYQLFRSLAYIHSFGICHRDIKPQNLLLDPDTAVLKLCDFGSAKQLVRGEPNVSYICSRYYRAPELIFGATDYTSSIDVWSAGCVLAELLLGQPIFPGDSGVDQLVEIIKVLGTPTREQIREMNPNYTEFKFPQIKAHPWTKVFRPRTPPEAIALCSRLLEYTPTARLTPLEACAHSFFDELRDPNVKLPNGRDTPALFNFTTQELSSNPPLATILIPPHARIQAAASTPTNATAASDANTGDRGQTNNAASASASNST

[3] = target: T1, Mitogen-activated protein kinase kinase kinase 5 (Homo sapiens, UniProt Q99683); assay: Inhibition of ASK1 (unknown origin) using biotin-MBP as substrate after 20 mins by TR-FRET assay
T1 sequence (Q99683 whole entry): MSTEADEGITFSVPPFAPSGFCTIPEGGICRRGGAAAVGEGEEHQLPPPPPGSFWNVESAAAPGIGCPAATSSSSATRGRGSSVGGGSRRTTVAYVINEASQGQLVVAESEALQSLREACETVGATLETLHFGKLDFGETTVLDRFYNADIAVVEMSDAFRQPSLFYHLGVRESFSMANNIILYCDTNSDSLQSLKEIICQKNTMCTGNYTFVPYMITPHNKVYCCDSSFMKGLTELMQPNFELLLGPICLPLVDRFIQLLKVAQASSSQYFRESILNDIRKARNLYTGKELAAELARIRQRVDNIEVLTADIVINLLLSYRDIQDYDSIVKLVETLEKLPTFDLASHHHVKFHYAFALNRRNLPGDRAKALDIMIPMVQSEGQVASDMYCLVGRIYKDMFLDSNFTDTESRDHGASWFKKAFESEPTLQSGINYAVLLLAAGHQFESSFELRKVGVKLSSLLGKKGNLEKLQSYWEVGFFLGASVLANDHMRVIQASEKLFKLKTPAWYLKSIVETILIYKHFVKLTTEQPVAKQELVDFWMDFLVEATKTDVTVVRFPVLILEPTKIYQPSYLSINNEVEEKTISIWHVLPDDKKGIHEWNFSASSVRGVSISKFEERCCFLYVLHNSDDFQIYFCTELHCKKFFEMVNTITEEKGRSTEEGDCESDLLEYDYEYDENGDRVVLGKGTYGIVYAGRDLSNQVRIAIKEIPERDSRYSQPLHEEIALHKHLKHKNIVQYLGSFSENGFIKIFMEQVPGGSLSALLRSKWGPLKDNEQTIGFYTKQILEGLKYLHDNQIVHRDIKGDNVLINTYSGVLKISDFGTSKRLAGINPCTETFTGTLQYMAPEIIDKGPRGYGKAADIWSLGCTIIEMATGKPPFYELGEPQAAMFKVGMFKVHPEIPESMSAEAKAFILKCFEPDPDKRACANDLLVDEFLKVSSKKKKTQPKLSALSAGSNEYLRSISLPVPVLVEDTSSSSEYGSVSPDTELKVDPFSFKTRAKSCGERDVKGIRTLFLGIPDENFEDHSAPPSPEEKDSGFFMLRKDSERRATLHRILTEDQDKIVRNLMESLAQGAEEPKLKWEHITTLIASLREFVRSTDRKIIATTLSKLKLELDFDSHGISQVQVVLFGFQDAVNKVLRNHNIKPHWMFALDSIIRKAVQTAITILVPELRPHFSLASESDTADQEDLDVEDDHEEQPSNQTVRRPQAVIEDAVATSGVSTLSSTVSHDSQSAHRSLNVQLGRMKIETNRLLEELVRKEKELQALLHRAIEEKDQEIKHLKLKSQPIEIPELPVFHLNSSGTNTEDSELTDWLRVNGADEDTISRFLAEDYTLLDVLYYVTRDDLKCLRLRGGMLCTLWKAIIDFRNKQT

[4] = target: Proto-oncogene tyrosine-protein kinase receptor Ret (Homo sapiens, UniProt P07949); assay: Inhibition of recombinant human GST-tagged RET cytoplasmic domain expressed in baculovirus expression system
Proto-oncogene tyrosine-protein kinase receptor Ret, sequence (P07949 whole entry, the tested form may be a part): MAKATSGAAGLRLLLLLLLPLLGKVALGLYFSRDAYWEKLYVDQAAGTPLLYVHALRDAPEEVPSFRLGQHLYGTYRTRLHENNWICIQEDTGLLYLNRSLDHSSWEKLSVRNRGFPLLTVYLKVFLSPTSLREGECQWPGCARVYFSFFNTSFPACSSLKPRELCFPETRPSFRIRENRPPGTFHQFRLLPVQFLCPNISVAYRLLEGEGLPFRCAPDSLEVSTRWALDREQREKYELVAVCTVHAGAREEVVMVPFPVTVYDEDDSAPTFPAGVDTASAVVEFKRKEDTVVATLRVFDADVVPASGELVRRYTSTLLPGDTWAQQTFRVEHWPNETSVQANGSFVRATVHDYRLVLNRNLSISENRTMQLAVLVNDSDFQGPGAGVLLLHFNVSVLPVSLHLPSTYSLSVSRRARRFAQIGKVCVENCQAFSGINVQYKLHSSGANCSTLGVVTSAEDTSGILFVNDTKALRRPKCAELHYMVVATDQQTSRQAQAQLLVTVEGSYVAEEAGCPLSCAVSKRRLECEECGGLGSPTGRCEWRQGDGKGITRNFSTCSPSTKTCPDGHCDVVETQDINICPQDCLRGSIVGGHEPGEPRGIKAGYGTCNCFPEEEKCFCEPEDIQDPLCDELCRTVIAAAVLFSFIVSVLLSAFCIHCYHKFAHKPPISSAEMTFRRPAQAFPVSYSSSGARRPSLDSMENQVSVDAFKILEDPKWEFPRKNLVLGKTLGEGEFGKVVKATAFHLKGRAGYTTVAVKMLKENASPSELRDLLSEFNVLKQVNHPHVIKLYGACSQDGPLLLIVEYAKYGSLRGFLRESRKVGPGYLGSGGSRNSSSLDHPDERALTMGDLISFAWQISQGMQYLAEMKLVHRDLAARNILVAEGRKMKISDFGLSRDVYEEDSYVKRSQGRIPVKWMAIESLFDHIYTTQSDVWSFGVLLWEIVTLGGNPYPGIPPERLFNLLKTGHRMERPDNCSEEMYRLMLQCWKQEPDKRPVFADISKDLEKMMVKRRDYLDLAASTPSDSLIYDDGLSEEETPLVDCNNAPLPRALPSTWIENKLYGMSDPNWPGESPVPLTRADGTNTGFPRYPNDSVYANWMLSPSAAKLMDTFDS

[5] = target: T1, Mitogen-activated protein kinase kinase kinase 5; assay: Inhibition of ASK1 (unknown origin) assessed as reduction in JNK phosphorylation by cell based assay
[6] = target: T2, Tyrosine-protein kinase Mer (Homo sapiens, UniProt Q12866); assay: Inhibition of recombinant human GST-tagged MER cytoplasmic domain expressed in baculovirus expression system
T2 sequence (Q12866 whole entry): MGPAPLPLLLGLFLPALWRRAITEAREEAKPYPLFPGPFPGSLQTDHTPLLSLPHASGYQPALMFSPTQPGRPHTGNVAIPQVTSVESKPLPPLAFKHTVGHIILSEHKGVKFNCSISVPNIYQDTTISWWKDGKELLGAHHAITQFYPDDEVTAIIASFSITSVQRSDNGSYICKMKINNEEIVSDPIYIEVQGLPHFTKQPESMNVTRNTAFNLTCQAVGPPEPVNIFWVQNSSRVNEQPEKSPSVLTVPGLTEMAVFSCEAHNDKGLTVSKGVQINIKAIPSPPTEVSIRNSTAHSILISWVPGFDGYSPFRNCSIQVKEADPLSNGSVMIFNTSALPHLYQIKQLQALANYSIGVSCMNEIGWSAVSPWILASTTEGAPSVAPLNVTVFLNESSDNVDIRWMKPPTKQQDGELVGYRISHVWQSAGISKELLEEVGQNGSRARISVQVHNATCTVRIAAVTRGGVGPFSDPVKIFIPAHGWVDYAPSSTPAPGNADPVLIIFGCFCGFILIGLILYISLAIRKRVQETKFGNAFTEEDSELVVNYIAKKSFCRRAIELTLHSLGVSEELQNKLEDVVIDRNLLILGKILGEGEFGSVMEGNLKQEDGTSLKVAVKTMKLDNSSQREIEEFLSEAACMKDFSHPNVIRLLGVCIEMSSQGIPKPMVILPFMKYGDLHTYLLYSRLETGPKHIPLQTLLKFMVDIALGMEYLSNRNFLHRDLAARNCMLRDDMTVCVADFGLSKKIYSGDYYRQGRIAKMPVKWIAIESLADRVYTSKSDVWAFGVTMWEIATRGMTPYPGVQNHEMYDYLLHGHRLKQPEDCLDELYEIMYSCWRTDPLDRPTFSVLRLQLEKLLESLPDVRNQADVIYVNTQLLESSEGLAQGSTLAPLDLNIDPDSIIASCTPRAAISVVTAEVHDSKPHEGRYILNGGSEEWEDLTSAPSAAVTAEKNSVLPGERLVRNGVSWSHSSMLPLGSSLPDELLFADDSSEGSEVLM

CYP3A4 = CYP3A4 (Homo sapiens, UniProt P08684); assay: Inhibition of CYP3A4 (unknown origin) at 10 uM relative to control; type: ADME
CYP3A4, sequence (P08684 whole entry): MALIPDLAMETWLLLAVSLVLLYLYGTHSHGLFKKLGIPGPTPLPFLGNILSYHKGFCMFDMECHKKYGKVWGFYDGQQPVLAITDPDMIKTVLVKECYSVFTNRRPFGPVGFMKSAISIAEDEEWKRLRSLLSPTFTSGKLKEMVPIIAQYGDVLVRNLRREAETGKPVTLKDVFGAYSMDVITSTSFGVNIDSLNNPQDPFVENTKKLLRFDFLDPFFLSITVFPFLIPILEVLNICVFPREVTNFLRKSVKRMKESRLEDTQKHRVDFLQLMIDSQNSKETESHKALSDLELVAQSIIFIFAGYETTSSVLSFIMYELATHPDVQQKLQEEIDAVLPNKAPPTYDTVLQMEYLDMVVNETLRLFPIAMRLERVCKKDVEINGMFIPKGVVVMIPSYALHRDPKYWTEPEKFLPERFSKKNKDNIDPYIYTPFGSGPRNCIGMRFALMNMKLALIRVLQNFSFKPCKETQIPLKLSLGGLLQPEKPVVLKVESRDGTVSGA

Rho-associated protein kinase 1, sequence (Q13464 whole entry, the tested form may be a part): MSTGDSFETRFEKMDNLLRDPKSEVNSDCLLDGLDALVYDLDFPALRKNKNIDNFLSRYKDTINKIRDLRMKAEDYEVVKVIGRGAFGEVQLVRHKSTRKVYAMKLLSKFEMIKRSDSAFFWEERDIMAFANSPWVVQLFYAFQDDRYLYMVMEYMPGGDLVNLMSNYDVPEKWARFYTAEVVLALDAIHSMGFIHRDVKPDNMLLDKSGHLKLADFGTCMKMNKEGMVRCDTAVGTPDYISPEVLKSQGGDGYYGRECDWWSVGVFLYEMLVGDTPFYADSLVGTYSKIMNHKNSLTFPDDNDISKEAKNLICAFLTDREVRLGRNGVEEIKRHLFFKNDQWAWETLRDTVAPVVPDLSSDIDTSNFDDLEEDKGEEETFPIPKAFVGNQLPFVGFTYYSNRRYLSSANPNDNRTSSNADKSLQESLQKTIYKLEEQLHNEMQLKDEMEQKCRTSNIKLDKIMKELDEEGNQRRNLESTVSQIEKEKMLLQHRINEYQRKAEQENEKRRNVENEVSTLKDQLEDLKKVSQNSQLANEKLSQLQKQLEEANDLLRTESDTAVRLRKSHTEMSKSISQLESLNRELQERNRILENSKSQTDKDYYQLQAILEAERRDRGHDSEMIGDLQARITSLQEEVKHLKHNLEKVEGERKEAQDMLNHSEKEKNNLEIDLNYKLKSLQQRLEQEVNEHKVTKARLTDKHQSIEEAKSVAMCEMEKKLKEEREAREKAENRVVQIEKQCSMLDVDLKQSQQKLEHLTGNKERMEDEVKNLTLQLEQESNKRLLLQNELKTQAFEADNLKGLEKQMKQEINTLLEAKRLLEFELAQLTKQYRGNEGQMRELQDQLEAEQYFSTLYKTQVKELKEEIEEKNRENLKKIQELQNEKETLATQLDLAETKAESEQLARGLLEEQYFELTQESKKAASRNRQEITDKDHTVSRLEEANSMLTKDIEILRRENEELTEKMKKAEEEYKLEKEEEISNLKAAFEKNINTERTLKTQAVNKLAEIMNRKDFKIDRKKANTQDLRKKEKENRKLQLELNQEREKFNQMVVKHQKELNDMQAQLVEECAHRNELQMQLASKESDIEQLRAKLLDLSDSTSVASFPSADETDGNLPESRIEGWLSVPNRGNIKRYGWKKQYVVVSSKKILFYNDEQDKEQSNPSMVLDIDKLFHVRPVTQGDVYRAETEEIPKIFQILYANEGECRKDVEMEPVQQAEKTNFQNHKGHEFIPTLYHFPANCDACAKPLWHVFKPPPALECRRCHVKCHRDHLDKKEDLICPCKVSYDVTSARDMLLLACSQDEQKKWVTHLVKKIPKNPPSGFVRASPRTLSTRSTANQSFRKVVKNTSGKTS

IC50 [1]: 5370 nM
pIC50 (MAP kinase p38): < 4.7
IC50 [2]: 457 nM
IC50 [3]: 60 nM
IC50 [4]: 617 nM
EC50 [5]: 60 nM
IC50 [6]: 7590 nM
inhibition at 10 µM (CYP3A4): 30%
SMILES: COCCn1cc(NC(=O)c2csc(-c3nncn3C(C)C)n2)cn1
